Source: PubChem BioAssay AID1249 (Columbia University Molecular Screening Center, 2008)
Active and inactive are the calls of the source. The rule behind the calls is not given here.

Assay: cellular cytoskeleton assembly phenotype modulators – imaging, high-content imaging, retest and dose response, confirmation (AID 1249);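 note: compound exposure lasted 24 h before fixation; plate controls were untreated cells for no effect and reference compound treated cells for full effect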
Conditions: cell-based imaging, cytoskeleton assembly phenotype, high content; at 2 µM; active compounds read high

Structure (SMILES)	inhibition
CCn1ccnc1C(O)c1cccc(OC)c1 (stereo not drawn)	6.1% (inactive)
O=C(Nc1ccccc1)c1nnsc1S(=O)c1ccc(Cl)cc1 (stereo not drawn)	-0.9% (inactive)
COc1ccc(NC(=O)/C(Cl)=C(/Cl)S(=O)(=O)Cc2ccc(C)cc2)cn1	5.2% (inactive)
CCOC(=O)N1CCN(C(=O)c2ccc3c(c2)NC(=O)C(N2CCOCC2)S3)CC1 (stereo not drawn)	-8.5% (inactive)
Cc1nc(-c2cccnc2)sc1C(=O)Nc1cccc(C(F)(F)F)c1	2.2% (inactive)
CC1Oc2ccccc2C=C1/C=C1/SC(N2CCOCC2)=NC1=O (stereo not drawn)	-1.2% (inactive)
COC(=O)CSc1nc2nc(C)c(Br)cc2[nH]1	1.5% (inactive)
O=C(c1ccc(Cl)cc1)N1CCCOC1	-2% (inactive)
Cc1cccc(C(=O)Oc2ccccc2C2C[C@]3(C)CC(=O)NC3N2C(=O)c2cccc(C)c2)c1 (stereo partly drawn)	-5.8% (inactive)
CSc1nc2sc(-c3ccccc3)cc2c(=O)n1N	-0.9% (inactive)
COc1cc(CNCc2ccco2)ccc1OCc1ccccc1	-7.5% (inactive)
O=C(NCCO)C(c1ccccc1)c1ccccc1	3.5% (inactive)
CCOC(=O)c1ccc(-n2c(=S)sc3c(=O)[nH]c(C)nc32)cc1	3.6% (inactive)
COc1cc(/C=C(/C#N)C(=O)NCCc2c[nH]c3ccccc23)ccc1OCc1ccccc1F	2.3% (inactive)
Cc1ccc2nc(CCc3nc4ccc(C)cc4o3)oc2c1	5.4% (inactive)
CCOC(=O)C(C)Oc1cccc2c(=O)n(CC(=O)NCc3ccc4c(c3)OCO4)ccc12 (stereo not drawn)	1.3% (inactive)
Cc1n[nH]c(=O)nc1NCc1ccccc1	4% (inactive)
Cc1cc(OCc2ccc(F)cc2)nc(-c2ccccc2O)n1	2.1% (inactive)
COC(=O)C1C(=O)C2=C(CC1C)NC(=O)CC2c1cccc(C)c1 (stereo not drawn)	-3.5% (inactive)
N=c1c2c(-c3ccccc3)c(-c3ccccc3)n(Cc3ccccc3)c2ncn1CCCn1ccnc1	-9.6% (inactive)
O=C1CC(N2CCN(Cc3ccc4c(c3)OCO4)CC2)C(=O)N1Cc1ccc(N2CCCC2=O)cc1 (stereo not drawn)	-1.8% (inactive)
CCOC(=O)c1ccc(N2C(=O)CC(N3CCC(O)(c4ccc(Br)cc4)CC3)C2=O)cc1 (stereo not drawn)	5.5% (inactive)
CC(C)c1nnc(NC(=O)CCC(=O)N2CCN(C3CCCCC3)CC2)s1	3.6% (inactive)
CC(C)(C)C(=O)/C(=C\c1cccc([N+](=O)[O-])c1)n1cncn1	0.1% (inactive)
O=C(CCSc1nnc2scc(-c3ccccc3)n12)Nc1nc(-c2ccccc2)ns1	-3.3% (inactive)

Structure (SMILES)	inhibition
Cc1cccc(N=C2NC(=O)CS2)c1C	7% (inactive)
CCOC(=O)c1cnc(-n2nc(C)cc2C)nc1NCc1ccccc1	-4.4% (inactive)
Nc1nc2c3ccccc3nc(Cc3ccccc3)n2n1	3.4% (inactive)
COCCCNC(=O)c1cn(C)c(=O)c2cc(OC)c(OC)cc12	-7.3% (inactive)
O=C(NC(Cc1c[nH]c2ccccc12)C(=O)O)c1ccco1 (stereo not drawn)	-3% (inactive)
N=C1C(c2nc3ccccc3s2)=C(O)CN1Cc1ccco1	5.2% (inactive)
O=C1CCSc2cccc3cccc(c23)N1	-5.2% (inactive)
O=C(NCc1ccncc1)c1ccc(Br)cc1	0.2% (inactive)
CCOC(=O)Cc1cc(-c2ccc(O)cc2)nc2ccc3ccccc3c12	-11.7% (inactive)
CCn1c(SCC(=O)Nc2ccc(C(=O)OC)cc2)nnc1-c1cccs1	0.4% (inactive)
O=S(=O)(c1cccs1)N1CCN(CC(O)COc2cccc(Br)c2)CC1 (stereo not drawn)	5.3% (inactive)
Nc1nnnn1/N=C/C(Br)=C/c1ccccc1	1.2% (inactive)
CC[C@@H](C)[C@H](NC(=O)OC(C)(C)C)c1nnc(S(=O)(=O)Cc2cc(C)ccc2C)o1	-2.4% (inactive)
COc1ccc(-c2cc(C(=O)Nc3cc(C)n(Cc4ccc(Cl)cc4)n3)no2)cc1OC	6.8% (inactive)
CCCn1c(=O)c2ccccc2n2c(SCC(=O)NCc3cccs3)nnc12	-5.9% (inactive)
OCCCCNc1cccc2ccccc12	-7.2% (inactive)
Nc1c(C(=O)NC2CCCC2)c2nc3ccccc3nc2n1N	-22.3% (inactive)
COc1cccc(C(=O)Nc2cccc(-c3nc4ncccc4o3)c2C)c1	1.2% (inactive)
O=C(CN1CCC(c2nc3ccccc3s2)CC1)NCc1cccs1	4% (inactive)
CC1=C([N+](=O)[O-])C(c2ccccc2)C2=C(N1)c1ccccc1C2=O (stereo not drawn)	8.7% (inactive)
Cc1c(CCO)c(=O)n(-c2ccccc2)n1S(=O)(=O)c1ccc(Cl)cc1	-11% (inactive)
C=CCOc1c2ccc(C(=O)NCc3ccccc3OC)cc2nn1C	-6.1% (inactive)
C=CCn1c(SCc2c(C)noc2C)nc2ccccc2c1=O	4.2% (inactive)
CO/N=C/C(=N\Nc1ccc(C)cc1)C(=O)c1ccc(OC)cc1	-0.5% (inactive)
CC(=O)c1c(C(C)=O)c(C)n(NC(=O)c2ccccc2O)c1C	-15.8% (inactive)

Structure (SMILES)	inhibition
Cc1cc(C)n(-c2nc(-c3cccc(Cl)c3)cs2)n1	-10.2% (inactive)
CCC(=O)Nc1cccc(C(=O)/C=C/c2cc(Br)ccc2OC)c1	0% (inactive)
O=C(NCc1ccccc1)NC1(C(=O)N2CCCC2)CCCCC1	5.3% (inactive)
Cc1cc(N2CCOCC2)c2c(N)c(C)cc(C)c2n1	-8.7% (inactive)
CCCCOCCCNC(=O)c1cccs1	-7.7% (inactive)
Cc1ccc(S(=O)(=O)Cn2nnnc2C(C(C)C)N2CCN(c3nc4ccccc4s3)CC2)cc1 (stereo not drawn)	4.2% (inactive)
COc1ccccc1/C=N/NC(=O)C(NC(=O)c1ccccc1)=C(C)C	5.8% (inactive)
Cc1cc(NC(=O)CSc2nc(-c3cccs3)cc(C(F)(F)F)n2)no1	-6.4% (inactive)
Cc1ccc(N/N=C/c2ccc(N3CCOCC3)cc2)cc1C	-7.8% (inactive)
CCS(=O)(=O)N1CCC(C(=O)NC2CCCCC2)CC1	3.1% (inactive)
Cc1ccccc1-c1nc(CN2CCC(C(=O)NCCCN3CC(C)CC(C)C3)CC2)c(C)o1 (stereo not drawn)	0.8% (inactive)
CNc1c([N+](=O)[O-])cnn1-c1ccc(Cl)cc1	-10.2% (inactive)
COc1cc2c(cc1OC)/C(=C/C#N)NC(C)(C)C2	1.8% (inactive)
C(=N\Nc1nc2ccccc2s1)/c1cccs1	-5.8% (inactive)
Cc1ccc(OCC(O)CN2CCN(CC(O)COc3ccc(C)cc3)CC2)cc1 (stereo not drawn)	10.9% (inactive)
CCC(C)C1C(C#N)=C(N)Oc2n[nH]c(-c3ccccc3)c21 (stereo not drawn)	1.1% (inactive)
Cc1nc(NC(C)C)c2oc3ccccc3c2n1	4.2% (inactive)
Fc1ccc(-n2[nH]nnc2=S)cc1N1CCCC1	10.6% (inactive)
O=C(c1ccc2c(c1)ncn2C1CCCCC1)N1CCC2(CC1)OCCO2	3% (inactive)
Nc1nnc(SCC(=O)NCc2ccc3c(c2)OCO3)s1	3.6% (inactive)
CCCOc1ccc(/C(O)=C2/C(=O)C(=O)N(CCOC)C2c2cccnc2)cc1 (stereo not drawn)	-4.5% (inactive)
CCOC(=O)N1CCC(NC(=O)c2ccc(CNS(=O)(=O)c3ccc(F)cc3)cc2)CC1	-3.7% (inactive)
COc1ccc(NC(=O)N2CCn3c2nc2ccccc23)cc1	5% (inactive)
